{"source": "patent US9605007B2", "about": "“2-amino-6-methyl-4,4a,5,6-tetrahydropyrano[3,4-d][1,3]thiazin-8a(8H)-yl-1,3-thiazol-4-yl amides” (Pfizer Inc., priority 2014, dated 2017)", "key": {"GSH Incubation Assay": {"assay": "GSH Incubation Assay", "format": "in vitro ADME", "details": "for formation of GSH adducts: following incubations; for Observed GSH adducts: glutathione (50 mM) at 37° C. in buffer for 4 hours", "procedure": "The test compound (10 μM in DMSO) was incubated with L-glutathione (50 mM, prepared in 100 mM potassium phosphate buffer) at 37° C. for 4 hours and then analyzed by HPLC-UV/MS/MS without work-up. Thermo Accela HPLC and Velos Pro Orbitrap Elite (S/N: SN05189B) operating in positive mode with a source voltage of 3.5 kV with data dependant processing. […] Product assignments were based on high resolution mass spectrometer fragmentation."}, "CYP2D6": {"biological_target": "CYP2D6 (Homo sapiens (Human), UniProt P10635)", "sequence (P10635 whole entry)": "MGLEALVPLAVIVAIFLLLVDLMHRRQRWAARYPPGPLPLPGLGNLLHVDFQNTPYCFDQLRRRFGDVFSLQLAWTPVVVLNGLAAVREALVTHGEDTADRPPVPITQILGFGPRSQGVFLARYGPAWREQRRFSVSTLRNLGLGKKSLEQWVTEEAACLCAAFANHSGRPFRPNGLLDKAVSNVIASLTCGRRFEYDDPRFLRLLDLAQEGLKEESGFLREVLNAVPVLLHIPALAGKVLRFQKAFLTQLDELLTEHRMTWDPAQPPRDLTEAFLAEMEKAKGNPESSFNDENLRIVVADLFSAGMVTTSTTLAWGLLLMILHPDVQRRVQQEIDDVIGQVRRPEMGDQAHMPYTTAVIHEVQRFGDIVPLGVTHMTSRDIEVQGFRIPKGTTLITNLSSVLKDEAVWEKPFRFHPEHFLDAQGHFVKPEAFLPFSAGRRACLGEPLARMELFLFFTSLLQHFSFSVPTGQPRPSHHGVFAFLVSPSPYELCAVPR", "assay": "General Multi-Point Cocktail DDI IC50 Assay (CYP2D6)", "procedure": "General Multi-Point Cocktail DDI IC50 Assay Conditions:\nThe incubation volume is 0.1 mL, utilizing a 384-well plate format. […] Substrate concentrations are near Km values that had been previously determined and incubation times are selected based on determinations of reaction velocity linearity. […] Samples are directly injected on an HPLC/MS/MS system. A Biomek FX workstation is used for liquid handling and sample incubation."}, "[1]": {"assay": "HLM CLint (clearance in human liver microsomes)", "format": "in vitro ADME"}, "[2]": {"tested_on": "sAPPβ in H4 human neuroglioma cells over-expressing wild-type human APP695", "assay": "sAPPβ Whole-Cell Assay (WCA)", "format": "cell-based", "details": "18 h", "procedure": "sAPPβ Whole-Cell Assay (WCA):\nsAPPβ, the primary cleavage product of BACE1, was determined in H4 human neuroglioma cells over-expressing the wild-type human APP695. […] The colorimetric reaction was read by an EnVision (PerkinElmer) plate-reader."}, "BACE2/BACE1": {"tested_on": "BACE2/BACE1", "assay": "BACE2/BACE1 Binding Ratio (scintillation proximity binding assays)", "design": "species or system human", "details": "ratio of IC50 from respective binding assays, pH 6.0", "procedure": "BACE2/BACE1 Binding Ratio:\nThe BACE1 and BACE2 binding assays measured beta-site amyloid precursor protein-cleaving enzyme (BACE) binding as a decrease in the counts of radioligand bound in a scintillation proximity assay (SPA). […] Full length human BACE1 or BACE2 over-expressed in HEK cells was prepared by Pfizer scientists. Frozen stock cell paste was reacted in 50 mM sodium acetate buffer (pH=6.0) containing 3H-(4aR,6R,8aS)-8a-(2,4-difluorophenyl)-6-(1-methyl-1H-pyrazol-4-yl)-4,4a,5,6,8,8a-hexahydropyrano[3,4-d][1,3]thiazin-2-amine ligand, SPA bead and 60 μM to 600 pM of test compound in an assay volume of 27 uL. The compound plate also contained positive (BACE inhibitor) and negative (DMSO) control wells. The binding was carried out at room temperature for 30 minutes and then the plates were read on a TriLux Microbeta reader to determine the number of counts bound."}, "MDR1 (P-glycoprotein) [3]": {"biological_target": "MDR1 (P-glycoprotein) (Homo sapiens (Human), UniProt P08183)", "sequence (P08183 whole entry)": "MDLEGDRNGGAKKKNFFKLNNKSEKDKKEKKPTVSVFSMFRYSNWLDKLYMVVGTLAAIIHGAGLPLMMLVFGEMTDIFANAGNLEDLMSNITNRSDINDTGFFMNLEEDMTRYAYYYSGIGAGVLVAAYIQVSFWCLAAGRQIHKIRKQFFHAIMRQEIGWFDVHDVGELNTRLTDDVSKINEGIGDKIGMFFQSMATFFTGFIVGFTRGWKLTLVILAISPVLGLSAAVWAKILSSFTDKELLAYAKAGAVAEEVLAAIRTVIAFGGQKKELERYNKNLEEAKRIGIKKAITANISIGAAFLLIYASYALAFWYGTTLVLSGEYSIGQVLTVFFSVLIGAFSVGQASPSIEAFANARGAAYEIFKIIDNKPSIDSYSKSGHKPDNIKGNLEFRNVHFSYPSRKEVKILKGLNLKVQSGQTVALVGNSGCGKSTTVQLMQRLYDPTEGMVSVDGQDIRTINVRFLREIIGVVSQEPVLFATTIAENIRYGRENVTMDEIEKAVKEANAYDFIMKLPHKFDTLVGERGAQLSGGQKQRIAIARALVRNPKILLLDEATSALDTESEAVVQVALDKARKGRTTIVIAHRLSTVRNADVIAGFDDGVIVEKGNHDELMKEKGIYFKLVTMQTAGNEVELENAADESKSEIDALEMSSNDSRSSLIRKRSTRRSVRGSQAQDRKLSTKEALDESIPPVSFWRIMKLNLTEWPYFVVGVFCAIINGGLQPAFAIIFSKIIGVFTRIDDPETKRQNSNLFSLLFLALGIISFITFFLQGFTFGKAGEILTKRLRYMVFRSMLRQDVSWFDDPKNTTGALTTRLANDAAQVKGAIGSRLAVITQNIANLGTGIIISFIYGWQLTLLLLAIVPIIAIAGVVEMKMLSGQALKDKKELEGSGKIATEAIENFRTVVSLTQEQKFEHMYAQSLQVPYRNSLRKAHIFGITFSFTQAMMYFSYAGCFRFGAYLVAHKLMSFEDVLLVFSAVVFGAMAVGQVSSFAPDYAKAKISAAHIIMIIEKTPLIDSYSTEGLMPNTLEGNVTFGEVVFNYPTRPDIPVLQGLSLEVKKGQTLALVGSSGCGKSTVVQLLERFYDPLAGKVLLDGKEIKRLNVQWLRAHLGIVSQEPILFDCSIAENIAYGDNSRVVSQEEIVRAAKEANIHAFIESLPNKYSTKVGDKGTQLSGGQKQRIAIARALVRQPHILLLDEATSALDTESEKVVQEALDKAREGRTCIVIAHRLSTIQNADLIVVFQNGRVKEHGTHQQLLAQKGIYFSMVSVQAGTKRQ", "assay": "Pgp Liability MDR1 Er", "format": "in vitro ADME", "details": "MDR1-transfected MDCK line, ratio of permeability Papp BA/AB", "source_text": "(§1) MDR1 Efflux Ratio (MDR Er) from MDR1-transfected MDCK line cell line represents the ratio of permeability, Papp BA/AB."}, "MDR1 (P-glycoprotein) [4]": {"tested_on": "MDR1 (P-glycoprotein)", "assay": "Pgp Liability MDR1 Er", "format": "in vitro ADME", "details": "dog, MDCK-MDR1", "source_text": "as §1"}, "BACE1": {"biological_target": "BACE1 (Homo sapiens (Human), UniProt P56817)", "sequence (P56817 46-457)": "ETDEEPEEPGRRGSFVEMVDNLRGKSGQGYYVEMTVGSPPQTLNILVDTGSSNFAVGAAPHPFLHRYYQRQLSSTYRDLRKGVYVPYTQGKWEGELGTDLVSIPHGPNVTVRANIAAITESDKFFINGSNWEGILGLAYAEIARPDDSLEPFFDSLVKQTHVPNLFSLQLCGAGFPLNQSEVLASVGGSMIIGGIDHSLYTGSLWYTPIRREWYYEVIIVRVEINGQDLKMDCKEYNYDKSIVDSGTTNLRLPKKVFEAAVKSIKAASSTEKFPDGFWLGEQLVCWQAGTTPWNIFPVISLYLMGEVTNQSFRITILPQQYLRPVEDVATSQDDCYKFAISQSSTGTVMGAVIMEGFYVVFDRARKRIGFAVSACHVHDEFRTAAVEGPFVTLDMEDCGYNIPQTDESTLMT", "assay": "BACE1 Cell-Free Assay (fluorescence polarization)", "format": "biochemical", "details": "geometric mean of 2-4 determinations unless otherwise indicated (b: ≧5 determinations; c: single determination); read-out: BACE 1 Cell-free Assay IC50", "source_text": "This assay measures the inhibition of the beta-secretase enzyme as it cleaves a non-native peptide.\nA synthetic APP substrate that can be cleaved by beta-secretase having N-term inal biotin and made fluorescent by the covalent attachment of Oregon Green at the Cys residue is used to assay beta-secretase activity in the presence or absence of the inhibitory compounds. The substrate is Biotin-[…]-C[Oregon Green]KK-OH. The BACE1 enzyme is affinity purified material from conditioned media of CHO-K1 cells that have been transfected with a soluble BACE construct (BACE1deltaTM96His). […] Plates are covered and incubated for 3 hours at 37° C. […] The activity of the beta-secretase enzyme is detected by changes in the fluorescence polarization that occur when the substrate is cleaved by the enzyme."}}}
{"smiles": "Cc1cc(OC(F)F)cnc1C(=O)Nc1csc([C@]23CO[C@@H](C)C[C@H]2CSC(N)=N3)n1", "note": "[Example 45, N-{2-[(4aR,6S,8aR)-2-amino-6-methyl-4,4a,5,6-tetrahydropyrano[3,4-d][1,3]thiazin-8a(8H)-yl]-1,3-thiazol-4-yl}-5-(difluoromethoxy)-3-methylpyridine-2-carboxamide]", "values": [{"measurement": "formation of GSH adducts", "setting": "GSH Incubation Assay", "result": "not detected"}, {"measurement": "Observed GSH adducts", "setting": "GSH Incubation Assay", "result": "Negative"}, {"measurement": "IC50", "setting": "CYP2D6", "result": "< 30", "unit": "µM"}]}
{"smiles": "C[C@H]1C[C@H]2CSC(N)=N[C@@]2(c2cc(NC(=O)c3ccc(Cl)cn3)ccc2F)CO1", "note": "[Comparator 7]", "values": [{"measurement": "HLM CLint", "setting": "[1]", "result": 34.4, "unit": "mL/min/kg"}, {"measurement": "IC50", "setting": "[2]", "result": "< 1", "unit": "nM"}, {"measurement": "BACE2/BACE1 Binding Ratio", "setting": "BACE2/BACE1", "result": 1.0}]}
{"smiles": "C[C@H]1C[C@H]2CSC(N)=N[C@@]2(c2nc(NC(=O)c3ccc(OC(F)F)cn3)ccc2F)CO1", "note": "[Comparator 2]", "values": [{"measurement": "HLM CLint", "setting": "[1]", "result": 22.9, "unit": "mL/min/kg"}]}
{"smiles": "C[C@H]1C[C@H]2CSC(N)=N[C@@]2(c2nc(NC(=O)c3ccc(OC(F)F)cn3)cs2)CO1", "note": "[Comparator 1]", "values": [{"measurement": "Pgp liability MDR1 Er", "setting": "MDR1 (P-glycoprotein) [3]", "result": 7.1}]}
{"smiles": "C[C@H]1C[C@H]2CSC(N)=N[C@@]2(c2nc(NC(=O)c3cnc(OC(F)F)cn3)cs2)CO1", "note": "[Example 2, N-{2-[(4aR,6S,8aR)-2-amino-6-methyl-4,4a,5,6-tetrahydropyrano[3,4-d][1,3]thiazin-8a(8H)-yl]-1,3-thiazol-4-yl}-5-(difluoromethoxy)pyrazine-2-carboxamide]", "values": [{"measurement": "formation of GSH adducts", "setting": "GSH Incubation Assay", "result": "not detected"}, {"measurement": "Observed GSH adducts", "setting": "GSH Incubation Assay", "result": "Negative"}, {"measurement": "efflux ratio", "setting": "MDR1 (P-glycoprotein) [4]", "result": "< 2.5"}, {"measurement": "IC50", "setting": "CYP2D6", "result": "< 30", "unit": "µM"}]}
{"smiles": "C[C@H]1C[C@H]2CSC(N)=N[C@@]2(c2nc(NC(=O)c3ccc(Cl)cn3)cs2)CO1", "note": "[Example 7, N-{2-[(4aR,6S,8aR)-2-amino-6-methyl-4,4a,5,6-tetrahydropyrano[3,4-d][1,3]thiazin-8a(8H)-yl]-1,3-thiazol-4-yl}-5-chloropyridine-2-carboxamide]", "values": [{"measurement": "formation of GSH adducts", "setting": "GSH Incubation Assay", "result": "not detected"}, {"measurement": "Observed GSH adducts", "setting": "GSH Incubation Assay", "result": "Negative"}, {"measurement": "IC50", "setting": "CYP2D6", "result": "< 30", "unit": "µM"}]}
{"smiles": "C[C@H]1C[C@H]2CSC(N)=N[C@@]2(c2nc(NC(=O)c3coc(CF)n3)cs2)CO1", "note": "[Example 3, N-{2-[(4aR,6S,8aR)-2-amino-6-methyl-4,4a,5,6-tetrahydropyrano[3,4-d][1,3]thiazin-8a(8H)-yl]-1,3-thiazol-4-yl}-2-(fluoromethyl)-1,3-oxazole-4-carboxamide]", "values": [{"measurement": "IC50", "setting": "BACE1", "result": 0.7, "unit": "nM"}]}
{"smiles": "NC1=N[C@@]2(c3cc(NC(=O)c4ccc(OC(F)F)cn4)ccc3F)CO[C@@H](C(F)(F)F)C[C@H]2CS1", "note": "[Comparator 6]", "values": [{"measurement": "IC50", "setting": "[2]", "result": "< 1", "unit": "nM"}, {"measurement": "Pgp liability MDR1 Er", "setting": "MDR1 (P-glycoprotein) [3]", "result": 3.2}, {"measurement": "BACE2/BACE1 Binding Ratio", "setting": "BACE2/BACE1", "result": 1.0}]}
{"smiles": "C[C@H]1C[C@H]2CSC(N)=N[C@@]2(c2nc(NC(=O)c3ccc(OC(F)F)cn3)cs2)CO1", "note": "[Example 1, N-{2-[(4aR,6S,8aR)-2-amino-6-methyl-4,4a,5,6-tetrahydropyrano[3,4-d][1,3]thiazin-8a(8H)-yl]-1,3-thiazol-4-yl}-5-(difluoromethoxy)pyridine-2-carboxamide]", "values": [{"measurement": "formation of GSH adducts", "setting": "GSH Incubation Assay", "result": "not detected"}, {"measurement": "Observed GSH adducts", "setting": "GSH Incubation Assay", "result": "Negative"}, {"measurement": "IC50", "setting": "CYP2D6", "result": "< 30", "unit": "µM"}]}
{"smiles": "NC1=N[C@@]2(c3cc(NC(=O)c4ccc(OC(F)F)cn4)ccc3F)COCC[C@H]2CS1", "note": "[Comparator 4]", "values": [{"measurement": "HLM CLint", "setting": "[1]", "result": 8.3, "unit": "mL/m in/kg mL/min/kg"}, {"measurement": "IC50", "setting": "[2]", "result": "< 1", "unit": "nM"}, {"measurement": "Pgp liability MDR1 Er", "setting": "MDR1 (P-glycoprotein) [3]", "result": 6.8}]}
{"smiles": "C[C@H]1C[C@H]2CSC(N)=N[C@@]2(c2nc(NC(=O)c3ccn(C(F)F)n3)cs2)CO1", "note": "[Example 4, N-{2-[(4aR,6S,8aR)-2-amino-6-methyl-4,4a,5,6-tetrahydropyrano[3,4-d][1,3]thiazin-8a(8H)-yl]-1,3-thiazol-4-yl}-1-(difluoromethyl)-1H-pyrazole-3-carboxamide]", "values": [{"measurement": "IC50", "setting": "BACE1", "result": 0.9, "unit": "nM"}]}
